Source: US8815891B2, “Tricyclic derivative or pharmaceutically acceptable salts thereof, preparation method thereof, and pharmaceutical composition containing the same” (Je Il Pharmaceutical Co., Ltd., priority 2008, dated 2014)
Where a name gives a salt, the structure may show the parent alone.

Target: PARP-1 enzyme (Homo sapiens (Human), UniProt P09874)
Assay: Poly(ADP-ribose)polymerase [PARP-1] enzyme inhibitory activity (Trevigen PARP Assay kit)
Format: biochemical
Details: PARP-1 enzyme, histone ribosylation, 450 nm; read-out: PARP-1 Inhibitory activity IC50
Protocol: The activity of the compounds according to the present invention to inhibit the PARP-1 enzyme was examined using a PARP Assay kit (4671-096-K) purchased from Trevigen. The assay was performed following a modified previously reported method by Lee et al [Methods Find, Exp. Clin. Pharmacol., 27, 617-622, 2005].
Histone was coated on 384-well plate, which is a small volume PS plate (784101) of Greiner Bio-One, and left at 25° C. for 2 hours. After that, the plate was rinsed four times with PBS (7.5 mM Na2HPO4, 2.5 mM NaH2PO4, 145 mM NaCl, pH 7.4), and in order to prevent non-specific reaction, the Strep-diluent (provided from kit of Trevigen) was added and left at 25° C. for one hour. After one hour, the plate was again rinsed with PBS four times, and the compounds of the Examples in various concentrations were put into reactant containing PARP-1 enzyme (0.12 unit/well), 2×PARP cocktail (1.95 mM NAD^+, 50 uM biotinylated NAD^+, and activated DNA in 50 mM Tris pH 8.0, 25 mM MgCl2) and allowed to react at 25° C. for 30 minutes. After 30 minutes, each well was rinsed with PBS four times, and in order to measure the amount of rybosylation by the PARP enzyme, strepavidin-linked peroxidase (Strep-HRP, 1:1000 diluted) was added and allowed to react at 37° C. for 30 minutes. The plate was rinsed with PBS four times, and TACS-Sapphire substrate was put and allowed to react at 25° C. for 10 minutes so that color reaction occurred. Finally, the reaction was terminated by the addition of 0.2 N HCl. The amount of histone ribosylation formed by PARP-1 enzyme was quantified at 450 nm using Wallac EnVision™ (PerkinElmer Oy, Turku, Finland).

Chain of PARP-1 enzyme (P09874 whole entry): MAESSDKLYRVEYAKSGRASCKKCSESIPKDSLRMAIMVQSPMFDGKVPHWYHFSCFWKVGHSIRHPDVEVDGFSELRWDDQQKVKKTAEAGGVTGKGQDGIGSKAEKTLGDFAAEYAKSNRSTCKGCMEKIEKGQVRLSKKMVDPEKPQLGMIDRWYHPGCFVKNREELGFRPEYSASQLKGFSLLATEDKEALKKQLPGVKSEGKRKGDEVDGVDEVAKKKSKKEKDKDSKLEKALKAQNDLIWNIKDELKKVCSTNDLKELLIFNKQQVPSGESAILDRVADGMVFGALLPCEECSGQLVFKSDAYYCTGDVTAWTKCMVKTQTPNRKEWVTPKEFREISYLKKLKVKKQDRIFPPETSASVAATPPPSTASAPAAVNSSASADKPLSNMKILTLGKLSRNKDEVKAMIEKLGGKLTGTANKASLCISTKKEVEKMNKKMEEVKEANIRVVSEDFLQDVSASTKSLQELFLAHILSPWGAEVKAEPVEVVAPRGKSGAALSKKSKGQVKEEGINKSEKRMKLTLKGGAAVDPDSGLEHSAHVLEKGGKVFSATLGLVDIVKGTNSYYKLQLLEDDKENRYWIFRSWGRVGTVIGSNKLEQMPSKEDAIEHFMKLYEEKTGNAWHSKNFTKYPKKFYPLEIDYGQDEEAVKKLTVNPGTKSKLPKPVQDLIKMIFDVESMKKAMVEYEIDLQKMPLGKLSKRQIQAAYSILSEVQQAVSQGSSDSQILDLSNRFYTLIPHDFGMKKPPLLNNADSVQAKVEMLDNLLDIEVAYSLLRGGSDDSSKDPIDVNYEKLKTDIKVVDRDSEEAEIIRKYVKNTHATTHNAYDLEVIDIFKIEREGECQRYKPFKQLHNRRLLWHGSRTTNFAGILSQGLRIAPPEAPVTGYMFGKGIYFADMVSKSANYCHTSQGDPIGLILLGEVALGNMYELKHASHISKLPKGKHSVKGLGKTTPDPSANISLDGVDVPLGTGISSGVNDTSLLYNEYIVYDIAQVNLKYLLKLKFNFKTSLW

First: COc1ccc2c3c(c(=O)[nH]c2c1)CCCN3 [Example 1, 8-Methoxy-1,2,3,4-tetrahydrobenzo[h][1,6]naphthyridine-5(6H)-one hydrochloride]
Second: COc1ccc2[nH]c(=O)c3c(c2c1)NCCC3 [Example 3, 9-Methoxy-1,2,3,4-tetrahydrobenzo[h][1,6]naphthyridine-5(6H)-one hydrochloride]
The IC50 of the first is higher: over 4000 nM for the first, 500 nM for the second. The second is the more potent here.

O=c1[nH]c2cc(CN3CCCC3)ccc2c2c1CCCN2 [Example 67, 8-(Pyrrolidine-1-ylmethyl)-1,2,3,4-tetrahydrobenzo[h][1,6]naphthyridine-5(6H)-one dihydrochloride] and CN(C)CCN(C)Cc1ccc2c3c(c(=O)[nH]c2c1)CCCN3 [Example 54, 8-{[(2-(Dimethylaminoethyl)(methyl)amino]methyl}-1,2,3,4-tetrahydrobenzo[h][1,6]naphthyridine-5(6H)-one trihydrochloride] cannot be ordered by IC50: under 1000 nM for the first, 930 nM for the second.

First: CC[N+]1(CC)CCN(CCOc2ccc3[nH]c(=O)c4c(c3c2)NCCC4)CC1 [Example 28, 1,1-Diethyl-4-[2-(5-oxo-1,2,3,4,5,6-hexahydrobenzo[h][1,6]naphthyridine-9-yloxy]ethyl)piperazine-1-ium chloride]
Second: CN(C)CCOc1ccc2[nH]c(=O)c3c(c2c1)NCCC3 [Example 16, 9-[2-(Dimethylamino)ethoxy]-1,2,3,4-tetrahydrobenzo[h][1,6]naphthyridine-5(6H)-one dihydrochloride]
The IC50 of the first is higher: over 4000 nM for the first, under 1000 nM for the second. The second is the more potent here.

O=c1[nH]c2ccc(OCCO)cc2c2c1CCCN2 [Example 24, 9-(2-Hydroxyethoxy)-1,2,3,4-tetrahydrobenzo[h][1,6]naphthyridine-5(6H)-one hydrochloride] and CN(C)CCc1ccc2[nH]c(=O)c3c(c2c1)NCCC3 [Example 31, 9-[2-(Dimethylamino)ethyl]-1,2,3,4-tetrahydrobenzo[h][1,6]naphthyridine-5(6H)-one dihydrochloride] are within 1.5-fold of each other in IC50: 1080 nM for the first, 1070 nM for the second.

COc1cc(CN(C)CCCl)cc2[nH]c(=O)c3c(c12)NCCC3 [Example 85, 8-{[(2-Chloroethyl)(methyl)amino]methyl}-10-methoxy-1,2,3,4-tetrahydrobenzo[h][1,6]naphthyridine-5(6H)-one dihydrochloride] and COCCOc1cc(CN(C)C)cc2[nH]c(=O)c3c(c12)NCCC3 [Example 116, 8-[(Dimethylamino)methyl]-10-(2-methoxyetoxy)-1,2,3,4-tetrahydrobenzo[h][1,6]naphthyridine-5(6H)-one dihydrochloride] are the same in IC50: 180 nM for the first, 180 nM for the second.

CNC(C)c1ccc2c3c(c(=O)[nH]c2c1)CCCN3 (stereo not shown) [Example 39, 8-[1-(Methylamino)ethyl]-1,2,3,4-tetrahydrobenzo[h][1,6]naphthyridine-5(6H)-one dihydrochloride] gave an IC50 of under 1000 nM.

Same assay, conditions: dihydrochloride; read-out: PARP-1 Inhibitory activity IC50

For O=c1[nH]c2cc(CN3CCCC3)ccc2c2c1CCCN2 [Example 67, 8-(Pyrrolidine-1-ylmethyl)-1,2,3,4-tetrahydrobenzo[h][1,6]naphthyridine-5(6H)-one dihydrochloride], the IC50 was 760 nM.

Same assay, conditions: read-out: PARP-1 Inhibitory activity IC50

Going from O=c1[nH]c2ccc(OCCN3CCC(c4ccccc4)CC3)cc2c2c1CCCN2 [Example 23, 9-[2-(4-Phenylpiperidine-1yl)ethoxy]-1,2,3,4-tetrahydrobenzo[h][1,6]naphthyridine-5(6H)-one dihydrochloride] to O=c1[nH]c2cc(OCCN3CCCCC3)ccc2c2c1CCCN2 [Example 35, 8-[2-(Piperidine-1yl)ethoxy]-1,2,3,4-tetrahydrobenzo[h][1,6]naphthyridine-5(6H)-one dihydrochloride], the IC50 rises from 1430 nM to 3540 nM (2.5-fold).

Compared with COc1cc(CN(C)C(C)C)cc2[nH]c(=O)c3c(c12)NCCC3 [Example 93, 8-{[Isopropyl(methyl)amino]methyl}-10-methoxy-1,2,3,4-tetrahydrobenzo[h][1,6]naphthyridine-5(6H)-one dihydrochloride], COc1cc(CN(C)CCOC(C)C)cc2[nH]c(=O)c3c(c12)NCCC3 [Example 83, 8-{[(2-Isopropoxyethyl)(methyl)amino]methyl}-10-methoxy-1,2,3,4-tetrahydrobenzo[h][1,6]naphthyridine-5(6H)-one dihydrochloride] is 2.3-fold higher in IC50: 140 nM for the first, 320 nM for the second.

Going from CCNCc1cc(OC)c2c3c(c(=O)[nH]c2c1)CCCN3 [Example 75, 8-[(Ethylamino)methyl]-10-methoxy-1,2,3,4-tetrahydrobenzo[h][1,6]naphthyridine-5(6H)-one dihydrochloride] to CCN(CC)Cc1cc(OC)c2c3c(c(=O)[nH]c2c1)CCCN3 [Example 86, 8-[(Diethylamino)methyl]-10-methoxy-1,2,3,4-tetrahydrobenzo[h][1,6]naphthyridine-5(6H)-one dihydrochloride], the IC50 rises from 50 nM to 110 nM (2.2-fold).

Compared with CN1CCCc2c1c1cc(OC3CCNCC3)ccc1[nH]c2=O [Example 13, 1-Methyl-9-(piperidine-4-yloxy)-1,2,3,4-tetrahydrobenzo[h][1,6]naphthyridine-5(6H)-one dihydrochloride], CN1CCCc2c1c1ccc(CN3CCOCC3)cc1[nH]c2=O [Example 70, 1-Methyl-8-(morpholinomethyl)-1,2,3,4-tetrahydrobenzo[h][1,6]naphthyridine-5(6H)-one dihydrochloride] is 3.5-fold lower in IC50: 3850 nM for the first, 1090 nM for the second.

First: CCOC(=O)CCN(C)Cc1ccc2c3c(c(=O)[nH]c2c1)CCCN3 [Example 57, Ethyl-3-{methyl[(5-oxo-1,2,3,4,5,6-hexahydrobenzo[h][1,6]naphthyridine-8-yl)methyl]amino}propanoate dihydrochloride]
Second: CN(C)Cc1ccc2[nH]c(=O)c3c(c2c1)NCCC3 [Example 50, 9-[(Dimethylamino)methyl]-1,2,3,4-tetrahydrobenzo[h][1,6]naphthyridine-5(6H)-one dihydrochloride]
The IC50 of the first is 1.5-fold higher: 480 nM for the first, 320 nM for the second.

Compared with COc1cc(CN2CC=CC2)cc2[nH]c(=O)c3c(c12)NCCC3 [Example 82, 8-[(2,5-Dihydro-1H-pyrrole-1-yl)methyl]-10-methoxy-1,2,3,4-tetrahydrobenzo[h][1,6]naphthyridine-5(6H)-one dihydrochloride], COc1cc(CN2CCCCC2)cc2[nH]c(=O)c3c(c12)NCCC3 [Example 84, 10-Methoxy-8-(piperidine-1-ylmethyl)-1,2,3,4-tetrahydrobenzo[h][1,6]naphthyridine-5(6H)-one dihydrochloride] is 2.5-fold higher in IC50: 60 nM for the first, 150 nM for the second.

CCOc1cc(CN2CCCCC2)cc2[nH]c(=O)c3c(c12)NCCC3 [Example 102, 10-Ethoxy-8-(piperidine-1-ylmethyl)-1,2,3,4-tetrahydrobenzo[h][1,6]naphthyridine-5(6H)-one dihydrochloride] and CC(C)NCc1ccc2c3c(c(=O)[nH]c2c1)CCCN3 [Example 45, 8-[(Isopropylamino)methyl]-1,2,3,4-tetrahydrobenzo[h][1,6]naphthyridine-5(6H)-one dihydrochloride] are within 1.5-fold of each other in IC50: 180 nM for the first, 260 nM for the second.

Going from O=c1[nH]c2cc(Cc3nnn[nH]3)ccc2c2c1CCCN2 [Example 95, 8-[(1H-tetrazole-5-yl)methyl]-1,2,3,4-tetrahydrobenzo[h][1,6]naphthyridine-5(6H)-one hydrochloride] to CNC(C)c1ccc2c3c(c(=O)[nH]c2c1)CCCN3 (stereo not shown) [Example 39, 8-[1-(Methylamino)ethyl]-1,2,3,4-tetrahydrobenzo[h][1,6]naphthyridine-5(6H)-one dihydrochloride], the IC50 falls from 490 nM to 100 nM (4.9-fold). The second is the more potent here.

First: CN(C)CCOc1ccc2[nH]c(=O)c3c(c2c1)NCCC3 [Example 16, 9-[2-(Dimethylamino)ethoxy]-1,2,3,4-tetrahydrobenzo[h][1,6]naphthyridine-5(6H)-one dihydrochloride]
Second: CN(C)CCCOc1ccc2c3c(c(=O)[nH]c2c1)CCCN3 [Example 36, 8-[3-(Dimethylamino)propoxy]-1,2,3,4-tetrahydrobenzo[h][1,6]naphthyridine-5(6H)-one dihydrochloride]
The IC50 of the first is 8.2-fold lower: 370 nM for the first, 3020 nM for the second. The first is the more potent here.

NCCOc1ccc2[nH]c(=O)c3c(c2c1)NCCC3 [Example 22, 9-(2-Aminoethoxy)-1,2,3,4-tetrahydrobenzo[h][1,6]naphthyridine-5(6H)-one dihydrochloride] was tested, and the IC50 was 1160 nM.
